Here are results for 14 compounds from patent US20250136619A1, “HETEROBIFUNCTIONAL COMPOUNDS AND THEIR USE IN TREATING DISEASE” (HALDA THERAPEUTICS OPCO, INC., priority 2021, published 2025).

The target in one assay is BTK (Homo sapiens (Human), UniProt Q06187). The assay can be described thus: KdELECT assay for binding affinity to BTK. As for the experimental part: (§1) Compounds were tested using a KdELECT assay. Kinase-tagged T7 phage strains were prepared in an E. coli host derived from the BL21 strain. E. coli were grown to log-phase and infected with T7 phage and incubated with shaking at 32° C. until lysis. The lysates were centrifuged and filtered to remove cell debris. The remaining kinases were produced in HEK-293 cells and subsequently tagged with DNA for qPCR detection. Streptavidin-coated magnetic beads were treated with biotinylated small molecule ligands for 30 minutes at room temperature to generate affinity resins for kinase assays. The liganded beads were blocked with excess biotin and washed with blocking buffer (SeaBlock (Pierce), 1% BSA, 0.05% Tween 20, 1 mM DTT) to remove unbound ligand and to reduce non-specific binding. Binding reactions were assembled by combining kinases, liganded affinity beads, and test compounds in 1× binding buffer (20% SeaBlock, 0.17×PBS, 0.05% Tween 20, 6 mM DTT). Test compounds were prepared as 111X stocks in 100% DMSO. Kd values were determined using an 11-point 3-fold compound dilution series with three DMSO control points. All compounds for Kd measurements are distributed by acoustic transfer (non-contact dispensing) in 100% DMSO. The compounds were then diluted directly into the assays such that the final concentration of DMSO was 0.9%. All reactions performed in polypropylene 384-well plate. Each was a final volume of 0.02 mL. The assay plates were incubated at room temperature with shaking for 1 hour and the affinity beads were washed with wash buffer (1×PBS, 0.05% Tween 20). The beads were then re-suspended in elution buffer (1×PBS, 0.05% Tween 20, 0.5 μM nonbiotinylated affinity ligand) and incubated at room temperature with shaking for 30 minutes. The kinase concentration in the eluates was measured by qPCR.
Chain of BTK (Q06187 whole entry): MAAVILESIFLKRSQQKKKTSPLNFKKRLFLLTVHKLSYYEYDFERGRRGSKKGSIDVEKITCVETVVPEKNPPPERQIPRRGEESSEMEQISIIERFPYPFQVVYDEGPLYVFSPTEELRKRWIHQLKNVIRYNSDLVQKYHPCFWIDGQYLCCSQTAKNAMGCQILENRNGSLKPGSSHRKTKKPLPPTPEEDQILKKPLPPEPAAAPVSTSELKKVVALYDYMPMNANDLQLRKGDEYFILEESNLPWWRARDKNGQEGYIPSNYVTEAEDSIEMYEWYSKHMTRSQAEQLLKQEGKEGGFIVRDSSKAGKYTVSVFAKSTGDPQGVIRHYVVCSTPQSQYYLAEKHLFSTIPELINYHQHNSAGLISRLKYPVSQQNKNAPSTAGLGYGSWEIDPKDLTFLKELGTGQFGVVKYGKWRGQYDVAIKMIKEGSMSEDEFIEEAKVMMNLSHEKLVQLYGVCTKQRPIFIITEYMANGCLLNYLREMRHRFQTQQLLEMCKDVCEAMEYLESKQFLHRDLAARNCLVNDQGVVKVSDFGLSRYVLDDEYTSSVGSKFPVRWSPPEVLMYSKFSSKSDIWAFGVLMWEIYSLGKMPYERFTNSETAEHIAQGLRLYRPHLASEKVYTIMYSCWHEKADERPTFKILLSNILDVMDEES

The next assay concerns HeLa cells. The assay can be described thus: Cellular growth inhibition assay (CellTiter-Glo), HeLa cells. The class given is cell-based. The settings on record: HeLa cells, three days of compound treatment, CellTiter-Glo 2.0, read-out: CTG HELA GI50. As to the method: (§2) HEK293 and HeLa cells were cultured in DMEM medium supplemented with 10% fetal bovine serum and 1% Penn/Strep. Cells were seeded in white 384-well plates at 500 cells/well in […] complete medium. Following seeding, plates were spun at 300×g for three minutes and cultured at 37° C. with 5% CO2 in a humidified tissue culture incubator.
(§3) After 24 hours, compounds were titrated in 100% DMSO and diluted in complete cell culture medium. […] of compound/media mixture was added to cells to bring total volume in well to […]. DMSO alone was used as a negative control. Plates were then spun at 300×g for three minutes and stored at 37° C. with 5% CO2 for three days.
(§4) On Day 0 and Day 3 of compound treatment, cell viability was quantified with CellTiter-Glo 2.0 reagent (Promega). After equilibrating microplates at room temperature for 30 minutes, 25 μL CellTiter-Glo 2.0 reagent was dispensed into each well to bring total volume to […]. Plates were mixed on shaker for 2 minutes at 500 rpm, followed by a 10-minute incubation at room temperature. Following a quick spin, luminescence readings were measured with an En Vision Plate Reader. Data was normalized to DMSO treated Day 0 and Day 3 readings. A four-parameter non-linear regression curve fit was applied to dose-response data in GraphPad Prism data analysis software to determine the half maximal growth inhibitory concentration (GI50) for each compound.
(In general: ATP-based viability assays read luminescence as a measure of living cells.)

A further assay deals with HEK293 cells. The assay can be described thus: Cellular growth inhibition assay (CellTiter-Glo), HEK293 cells. The class given is cell-based. The settings on record: HEK293 cells, three days of compound treatment, CellTiter-Glo 2.0, read-out: CTG HEK293 GI50. As to the method: as §2, §3, §4
The next assay has as its target CDK9 (Homo sapiens (Human), UniProt P50750). The assay is described as follows: KdELECT assay for binding affinity to CDK9. As to the method: as §1, with “KdELECT.” for “KdELECT assay.”, “1×binding” for “1× binding”

Read-outs that look alike come from different tables or passages of the source.

Chain of CDK9 (P50750 whole entry): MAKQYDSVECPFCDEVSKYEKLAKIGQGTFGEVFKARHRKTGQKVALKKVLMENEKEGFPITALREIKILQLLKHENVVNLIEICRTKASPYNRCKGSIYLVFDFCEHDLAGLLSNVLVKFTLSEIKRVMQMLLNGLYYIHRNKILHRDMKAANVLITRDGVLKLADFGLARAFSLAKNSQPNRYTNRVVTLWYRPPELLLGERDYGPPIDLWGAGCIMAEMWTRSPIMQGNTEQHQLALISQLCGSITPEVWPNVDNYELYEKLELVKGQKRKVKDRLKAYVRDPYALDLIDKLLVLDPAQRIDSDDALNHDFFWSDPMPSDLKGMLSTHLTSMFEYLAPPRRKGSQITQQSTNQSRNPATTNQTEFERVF

As for `NC(=O)c1c(F)cccc1Nc1nc(Nc2ccc(S(=O)(=O)NCCCCCCCC/C=C/C(=O)N3CCC[C@@H](n4nc(-c5ccc(Oc6ccccc6)cc5)c5c(N)ncnc54)C3)cc2)ncc1Br` [Compound I-17], the Kd (commonly a measure of binding affinity in units of concentration) on BTK was 500 to 2500 nM.
On the same count and under the same terms, to `CC[C@@H]1C(=O)N(C)c2cnc(Nc3ccc(C(=O)NCCCCCCCCOC/C=C/C(=O)N4CCC[C@@H](n5nc(-c6ccc(Oc7ccccc7)cc6)c6c(N)ncnc65)C4)cc3OC)nc2N1C1CCCC1` [Compound I-36, N-[8-[(E)-4-[(3R)-3-[4-amino-3-(4-phenoxyphenyl)pyrazolo[3,4-d]pyrimidin-1-yl]-1-piperidyl]-4-oxo-but-2-enoxy]octyl]-4-[[(7R)-8-cyclopentyl-7-ethyl-5-methyl-6-oxo-7H-pteridin-2-yl]amino]-3-methoxy-benzamide] belongs 50 to 500 nM; to `CC[C@@H]1C(=O)N(C)c2cnc(Nc3ccc(C(=O)NCCOCCOCCOC/C=C/C(=O)N4CCC[C@@H](n5nc(-c6ccc(Oc7ccccc7)cc6)c6c(N)ncnc65)C4)cc3OC)nc2N1C1CCCC1` [Compound I-37, N-[2-[2-[2-[(E)-4-[(3R)-3-[4-amino-3-(4-phenoxyphenyl)pyrazolo[3,4-d]pyrimidin-1-yl]-1-piperidyl]-4-oxo-but-2-enoxy]ethoxy]ethoxy]ethyl]-4-[[(7R)-8-cyclopentyl-7-ethyl-5-methyl-6-oxo-7H-pteridin-2-yl]amino]-3-methoxy-benzamide], 50 to 500 nM.
For the compound `CC[C@@H]1C(=O)N(C)c2cnc(Nc3ccc(C(=O)NCCOCCOCCOCCOCCOCCOCCOC/C=C/C(=O)N4CCC[C@@H](n5nc(-c6ccc(Oc7ccccc7)cc6)c6c(N)ncnc65)C4)cc3OC)nc2N1C1CCCC1` [Compound I-39, N-[2-[2-[2-[2-[2-[2-[2-[(E)-4-[(3R)-3-[4-amino-3-(4-phenoxyphenyl)pyrazolo[3,4-d]pyrimidin-1-yl]-1-piperidyl]-4-oxo-but-2-enoxy]ethoxy]ethoxy]ethoxy]ethoxy]ethoxy]ethoxy]ethyl]-4-[[(7R)-8-cyclopentyl-7-ethyl-5-methyl-6-oxo-7H-pteridin-2-yl]amino]-3-methoxy-benzamide], the Kd at BTK was below 50 nM.
As to `CCc1cnn2c(NCc3ccc(OCCOCCOCCOCCOCCOCCOCCOCCOCCN(C)C/C=C/C(=O)N4CCC[C@@H](n5nc(-c6ccc(Oc7ccccc7)cc6)c6c(N)ncnc65)C4)nc3)cc(N3CCCC[C@H]3CCO)nc12` [Compound I-48], the GI50 (usually the concentration giving 50% growth inhibition) lay in the range of 1500 to 5000 nM with HeLa cells (Homo sapiens, 72 h) and 1500 to 5000 nM in the assay with HEK293 cells (Homo sapiens, 72 h). In addition, the Kd at BTK is below 50 nM.
On to `CN(OCCOCCOCCOCCOCCOCCOCCOC/C=C/C(=O)N1CCC[C@@H](n2nc(-c3ccc(Oc4ccccc4)cc3)c3c(N)ncnc32)C1)C(=O)N1N=C(c2cc(F)ccc2F)SC1(CCCN)c1ccccc1` (some centres unmarked) [Compound I-51], for which the concentration for 50% growth inhibition (GI50) lay within 500 to 1500 nM in the assay with HeLa cells (Homo sapiens, 72 h) and 1500 to 5000 nM in the assay with HEK293 cells (Homo sapiens, 72 h). The Kd at BTK is below 50 nM.
Compound `C=CC(=O)N1CCN([C@@H](CC2CC2)c2ccc([C@H](C)Nc3ncc4c(n3)N(CCOCCOCCOc3ccc(CNc5cc(N6CCCC[C@H]6CCO)nc6c(CC)cnn56)cn3)C(=O)OC4)cc2)CC1` [Compound I-55] displayed a Kd on CDK9 of 50 to 500 nM.
On the same count and under the same terms, to `C=CC(=O)N1CCN([C@@H](CC2CC2)c2ccc([C@H](C)Nc3ncc4c(n3)N(CCOCCOCCn3cc(CNc5cc(N6CCCC[C@H]6CCO)nc6c(CC)cnn56)ccc3=O)C(=O)OC4)cc2)CC1` [Compound I-56] belongs 50 to 500 nM; to `C=CC(=O)N1CCN([C@@H](CC2CC2)c2ccc([C@H](C)Nc3ncc4c(n3)N(CCOCCOCCOCCOCCOCCOCCOc3ccc(CNc5cc(N6CCCC[C@H]6CCO)nc6c(CC)cnn56)cn3)C(=O)OC4)cc2)CC1` [Compound I-83], below 50 nM; to `C=CC(=O)N1CCN([C@@H](CC2CC2)c2ccc([C@H](C)Nc3ncc4c(n3)N(CCOCCOCCOCCOCCOCCOCCNS(=O)(=O)c3ccc(Nc5ncc(Br)c(Nc6cccc(F)c6C(N)=O)n5)cc3)C(=O)OC4)cc2)CC1` [Compound I-86, 2-[[5-bromo-2-[4-[2-[2-[2-[2-[2-[2-[2-[7-[[(1S)-1-[4-[(1S)-2-cyclopropyl-1-(4-prop-2-enoylpiperazin-1-yl)ethyl]phenyl]ethyl]amino]-2-oxo-4H-pyrimido[4,5-d][1,3]oxazin-1-yl]ethoxy]ethoxy]ethoxy]ethoxy]ethoxy]ethoxy]ethylsulfamoyl]anilino]pyrimidin-4-yl]amino]-6-fluoro-benzamide], 500 to 2500 nM.
Same read-out and setting: to `C=CC(=O)N1CCN([C@@H](CC2CC2)c2ccc([C@H](C)Nc3ncc4c(n3)N(CCOCCOCCOCCOCCOCCOCCn3cc(CNc5cc(N6CCCC[C@H]6CCO)nc6c(CC)cnn56)ccc3=O)C(=O)OC4)cc2)CC1` [Compound I-87] belongs below 50 nM.
Regarding `CCc1cnn2c(NCc3ccc(OCCOCCOCCNS(=O)(=O)c4cc(F)cc(N(C(=O)[C@@H]5CCC(=O)N5c5cc(C#N)ccn5)C(C(=O)NC5CC(F)(F)C5)c5ccccc5Cl)c4)nc3)cc(N3CCCC[C@H]3CCO)nc12` (some centres unmarked) [Compound I-92], the concentration for 50% growth inhibition (GI50) in the assay with HeLa cells and in the assay on HEK293 cells was below 500 nM each time. On CDK9, the Kd lay in the range of 500 to 2500 nM.
For the compound `CCc1cnn2c(NCc3ccc(=O)n(CCOCCOCCNS(=O)(=O)c4cc(F)cc(N(C(=O)[C@@H]5CCC(=O)N5c5cc(C#N)ccn5)C(C(=O)NC5CC(F)(F)C5)c5ccccc5Cl)c4)c3)cc(N3CCCC[C@H]3CCO)nc12` (stereo partly drawn) [Compound I-93, (2S)—N-[1-(2-chlorophenyl)-2-[(3,3-difluorocyclobutyl)amino]-2-oxo-ethyl]-1-(4-cyano-2-pyridyl)-N-[3-[2-[2-[2-[5-[ [[3-ethyl-5-[(2S)-2-(2-hydroxyethyl)-1-piperidyl]pyrazolo[1,5-a]pyrimidin-7-yl]amino]methyl]-2-oxo-1-pyridyl]ethoxy]ethoxy]ethylsulfamoyl]-5-fluoro-phenyl]-5-oxo-pyrrolidine-2-carboxamide], the GI50 with HeLa cells (Homo sapiens, 72 h) was 1500 to 5000 nM; in the assay on HEK293 cells (Homo sapiens, 72 h), above 5000 nM. For the same compound, the Kd at CDK9 was 500 to 2500 nM.
Turning to `CN(CCOCCOCCNS(=O)(=O)c1cc(F)cc(N(C(=O)[C@@H]2CCC(=O)N2c2cc(C#N)ccn2)C(C(=O)NC2CC(F)(F)C2)c2ccccc2Cl)c1)C(=O)N1N=C(c2cc(F)ccc2F)SC1(CCCN)c1ccccc1` (stereo partly drawn) [Compound I-114, 2-(3-aminopropyl)-N-[2-[2-[2-[[3-[[1-(2-chlorophenyl)-2-[(3,3-difluorocyclobutyl)amino]-2-oxo-ethyl]-[(2S)-1-(4-cyano-2-pyridyl)-5-oxo-pyrrolidine-2-carbonyl]amino]-5-fluoro-phenyl]sulfonylamino]ethoxy]ethoxy]ethyl]-5-(2,5-difluorophenyl)-N-methyl-2-phenyl-1,3,4-thiadiazole-3-carboxamide], the GI50 in the assay on HeLa cells (Homo sapiens, 72 h) is 1500 to 5000 nM; in the assay with HEK293 cells (Homo sapiens, 72 h), above 5000 nM.
